Experimental data: patent US20130157954A1, “METHODS FOR TREATMENT OR PROPHYLAXIS OF KIDNEY OR LIVER DYSFUNCTION” (NPS PHARMACEUTICALS, INC., priority 2010, published 2013)

Assay: Example 2: liver biomarkers (albumin, gamma glutamyl transferase, total bilirubin, ALT, AST, ALP) in short bowel syndrome patients, every four weeks for 24 weeks; also sorted by >10% change from baseline
Assay type: in vivo, Human
Conditions: 0.05 mg/kg/d; for Bilirubin: subjects Within 10% of Baseline / Bilirubin: subjects with >10% decrease from Baseline / Bilirubin: subjects with >10% increase from Baseline / ALT: subjects Within 10% of Baseline / ALT: subjects with >10% decrease from Baseline / ALT: subjects with >10% increase from Baseline / AST: subjects Within 10% of Baseline / AST: subjects with >10% decrease from Baseline / AST: subjects with >10% increase from Baseline / Albumin: subjects Within 10% of Baseline / Albumin: subjects with >10% decrease from Baseline / Albumin: subjects with >10% increase from Baseline / Alkaline Phosphatase: subjects Within 10% of Baseline / Alkaline Phosphatase: subjects with >10% decrease from Baseline / Alkaline Phosphatase: subjects with >10% increase from Baseline: m = 40
Method: To further confirm the results of Example 1, a further study was conducted involving more individuals and additional diagnostic biomarkers. Human patients with short bowel syndrome were divided into two groups: a control group (43 total individuals) to receive placebo, and an experimental group (42 total individuals) to receive teduglutide at 0.05 mg/kg/day throughout the study. Patients were treated by subcutaneous injection of placebo or the appropriate dose of teduglutide. Known biomarkers of liver function were monitored every four weeks, for 24 weeks. The liver biomarkers tested included albumin, gamma glutamyl transferase, total bilirubin, ALT and AST and ALP. Before administration of placebo or teduglutide, diagnostic biomarker levels were tested to establish a baseline for each individual.
To determine the effect of GLP-2 on the levels of the diagnostic biomarkers, the average level of each biomarker was measured for the placebo and teduglutide treated groups for each visit. Furthermore, the average change from baseline was calculated using the established baseline values. For FIGS. 17-28, p-values were calculated using the t-test.
P values are provided, which were calculated for each distribution of biomarker changes for each week using the chi-squared test.

SMILES: CC[C@H](C)[C@H](NC(=O)[C@H](Cc1ccccc1)NC(=O)[C@H](CC(=O)O)NC(=O)[C@H](CCCNC(=N)N)NC(=O)[C@H](C)NC(=O)[C@H](C)NC(=O)[C@H](CC(C)C)NC(=O)[C@H](CC(N)=O)NC(=O)[C@H](CC(=O)O)NC(=O)[C@H](CC(C)C)NC(=O)[C@@H](NC(=O)[C@@H](NC(=O)[C@H](CC(N)=O)NC(=O)[C@H](CCSC)NC(=O)[C@H](CCC(=O)O)NC(=O)[C@H](CC(=O)O)NC(=O)[C@H](CO)NC(=O)[C@H](Cc1ccccc1)NC(=O)[C@H](CO)NC(=O)CNC(=O)[C@H](CC(=O)O)NC(=O)CNC(=O)[C@@H](N)Cc1c[nH]cn1)[C@@H](C)O)[C@@H](C)CC)C(=O)N[C@@H](CC(N)=O)C(=O)N[C@@H](Cc1c[nH]c2ccccc12)C(=O)N[C@@H](CC(C)C)C(=O)N[C@H](C(=O)N[C@@H](CCC(N)=O)C(=O)N[C@H](C(=O)N[C@@H](CCCCN)C(=O)N[C@H](C(=O)N[C@H](C(=O)N[C@@H](CC(=O)O)C(=O)O)[C@@H](C)O)[C@@H](C)CC)[C@@H](C)O)[C@@H](C)CC [teduglutide]
- Bilirubin: subjects Within 10% of Baseline (Week 2): 5 (12.5%) n (%)
- Bilirubin: subjects with >10% decrease from Baseline (Week 2): 28 (70.0%) n (%)
- Bilirubin: subjects with >10% increase from Baseline (Week 2): 7 (17.5%) n (%)
- ALT Change from Baseline, Max (Week 4): 29 U/L
- ALT Change from Baseline, Mean (Week 4): −9.2 U/L
- ALT Change from Baseline, Median (Week 4): −7 U/L
- ALT Change from Baseline, Min (Week 4): −44 U/L
- ALT Observed Value, Max (Week 4): 104 U/L
- ALT Observed Value, Median (Week 4): 29 U/L
- ALT Observed Value, Min (Week 4): 8 U/L
- AST Change from Baseline, Max (Week 4): 43 U/L
- AST Change from Baseline, Mean (Week 4): −3.5 U/L
- AST Change from Baseline, Median (Week 4): −5 U/L
- AST Change from Baseline, Min (Week 4): −31 U/L
- AST Observed Value, Max (Week 4): 89 U/L
- AST Observed Value, Min (Week 4): 13 U/L
- Albumin Change from Baseline, Max (Week 4): 5 g/L
- Albumin Change from Baseline, Mean (Week 4): -0.7 g/L
- Albumin Change from Baseline, Median (Week 4): -1 g/L
- Albumin Change from Baseline, Min (Week 4): -7 g/L
- Albumin Observed Value, Max (Week 4): 47 g/L
- Albumin Observed Value, Median (Week 4): 42 g/L
- Albumin Observed Value, Min (Week 4): 34 g/L
- Alkaline Phosphatase Change from Baseline, Max (Week 4): 34 U/L
- Alkaline Phosphatase Change from Baseline, Min (Week 4): −89 U/L
- Alkaline Phosphatase Observed Value, Max (Week 4): 307 U/L
- Alkaline Phosphatase Observed Value, Min (Week 4): 54 U/L
- Bilirubin Change from Baseline, Max (Week 4): 9.0 µmol/L
- Bilirubin Change from Baseline, Mean (Week 4): -1.10 µmol/L
- Bilirubin Change from Baseline, Median (Week 4): -1.5 µmol/L
- Bilirubin Change from Baseline, Min (Week 4): -14.2 µmol/L
- Bilirubin Observed Value, Max (Week 4): 54.0 µmol/L
- Bilirubin Observed Value, Min (Week 4): 3.4 µmol/L
- Gamma Glutamyl Transferase Change from Baseline, Max (Week 4): 105 U/L
- Gamma Glutamyl Transferase Change from Baseline, Mean (Week 4): 1.7 U/L
- Gamma Glutamyl Transferase Change from Baseline, Median (Week 4): −0.5 U/L
- Gamma Glutamyl Transferase Change from Baseline, Min (Week 4): −88 U/L
- Gamma Glutamyl Transferase Observed Value, Max (Week 4): 309 U/L
- Gamma Glutamyl Transferase Observed Value, Min (Week 4): 12 U/L
- ALT: subjects Within 10% of Baseline (Week 4): 8 (20.0%) n (%)
- ALT: subjects with >10% decrease from Baseline (Week 4): 26 (65.0%) n (%)
- ALT: subjects with >10% increase from Baseline (Week 4): 6 (15.0%) n (%)
- AST: subjects Within 10% of Baseline (Week 4): 6 (15.0%) n (%)
- AST: subjects with >10% decrease from Baseline (Week 4): 26 (65.0%) n (%)
- AST: subjects with >10% increase from Baseline (Week 4): 8 (20.0%) n (%)
- Albumin: subjects Within 10% of Baseline (Week 4): 35 (87.5%) n (%)
- Albumin: subjects with >10% decrease from Baseline (Week 4): 3 (7.5%) n (%)
- Albumin: subjects with >10% increase from Baseline (Week 4): 2 (5.0%) n (%)
- Alkaline Phosphatase: subjects Within 10% of Baseline (Week 4): 16 (40.0%) n (%)
- Alkaline Phosphatase: subjects with >10% decrease from Baseline (Week 4): 22 (55.0%) n (%)
- Alkaline Phosphatase: subjects with >10% increase from Baseline (Week 4): 2 (5.0%) n (%)
- Bilirubin: subjects Within 10% of Baseline (Week 4): 7 (17.5%) n (%)
- Bilirubin: subjects with >10% decrease from Baseline (Week 4): 19 (47.5%) n (%)
- Bilirubin: subjects with >10% increase from Baseline (Week 4): 14 (35.0%) n (%)
- ALT Change from Baseline, Max (Week 8): 20 U/L
- ALT Change from Baseline, Median (Week 8): −5.5 U/L
- ALT Change from Baseline, Min (Week 8): −65 U/L
- ALT Observed Value, Max (Week 8): 138 U/L
- ALT Observed Value, Median (Week 8): 26 U/L
- ALT Observed Value, Min (Week 8): 9 U/L
- AST Change from Baseline, Max (Week 8): 17 U/L
- AST Change from Baseline, Mean (Week 8): −5.1 U/L
- AST Change from Baseline, Median (Week 8): −5 U/L
- AST Change from Baseline, Min (Week 8): −46 U/L
- AST Observed Value, Max (Week 8): 63 U/L
- AST Observed Value, Min (Week 8): 8 U/L
- Albumin Change from Baseline, Max (Week 8): 4 g/L
- Albumin Change from Baseline, Mean (Week 8): -0.7 g/L
- Albumin Change from Baseline, Median (Week 8): -1 g/L
- Albumin Change from Baseline, Min (Week 8): -5 g/L
- Albumin Observed Value, Max (Week 8): 48 g/L
- Albumin Observed Value, Median (Week 8): 42 g/L
- Albumin Observed Value, Min (Week 8): 36 g/L
- Alkaline Phosphatase Change from Baseline, Max (Week 8): 19 U/L
- Alkaline Phosphatase Change from Baseline, Min (Week 8): −105 U/L
- Alkaline Phosphatase Observed Value, Max (Week 8): 341 U/L
- Alkaline Phosphatase Observed Value, Median (Week 8): 94 U/L
- Alkaline Phosphatase Observed Value, Min (Week 8): 46 U/L
- Bilirubin Change from Baseline, Max (Week 8): 6.8 µmol/L
- Bilirubin Change from Baseline, Mean (Week 8): -1.60 µmol/L
- Bilirubin Change from Baseline, Median (Week 8): -0.95 µmol/L
- Bilirubin Change from Baseline, Min (Week 8): -14.9 µmol/L
- Bilirubin Observed Value, Max (Week 8): 61.8 µmol/L
- Bilirubin Observed Value, Min (Week 8): 3.4 µmol/L
- Gamma Glutamyl Transferase Change from Baseline, Max (Week 8): 77 U/L
- Gamma Glutamyl Transferase Change from Baseline, Mean (Week 8): −5.7 U/L
- Gamma Glutamyl Transferase Change from Baseline, Median (Week 8): −5.5 U/L
- Gamma Glutamyl Transferase Change from Baseline, Min (Week 8): −145 U/L
- Gamma Glutamyl Transferase Observed Value, Max (Week 8): 281 U/L
- Gamma Glutamyl Transferase Observed Value, Median (Week 8): 46 U/L
- Gamma Glutamyl Transferase Observed Value, Min (Week 8): 6 U/L
- ALT: subjects Within 10% of Baseline (Week 8): 7 (17.5%) n (%)
- ALT: subjects with >10% decrease from Baseline (Week 8): 26 (65.0%) n (%)
- ALT: subjects with >10% increase from Baseline (Week 8): 7 (17.5%) n (%)
- AST: subjects Within 10% of Baseline (Week 8): 8 (20.0%) n (%)
- AST: subjects with >10% decrease from Baseline (Week 8): 24 (60.0%) n (%)
- AST: subjects with >10% increase from Baseline (Week 8): 8 (20.0%) n (%)
- Albumin: subjects Within 10% of Baseline (Week 8): 38 (95.0%) n (%)
- Albumin: subjects with >10% decrease from Baseline (Week 8): 1 (2.5%) n (%)
- Albumin: subjects with >10% increase from Baseline (Week 8): 1 (2.5%) n (%)
- Alkaline Phosphatase: subjects Within 10% of Baseline (Week 8): 13 (32.5%) n (%)
- Alkaline Phosphatase: subjects with >10% decrease from Baseline (Week 8): 25 (62.5%) n (%)
- Alkaline Phosphatase: subjects with >10% increase from Baseline (Week 8): 2 (5.0%) n (%)
